Results on 36 compounds are retold here after ChEMBL document CHEMBL4002629, “Design, synthesis and biological evaluation of novel 3-substituted 4-anilino-coumarin derivatives as antitumor agents” (Bioorg Med Chem Lett, 2017).

For one test, the system named is MCF7. Nature of the test: Antiproliferative activity against human MCF7 cells after 48 hrs by MTT assay. The settings on record: MCF7, 48 h. It is filed as functional, cell-based.
Another test has as its system HepG2. In words: Antiproliferative activity against human HepG2 cells after 48 hrs by MTT assay. It counts as functional, cell-based. The following applies: HepG2, 48 h.
Another test relates to HCT-116. Nature of the test: Antiproliferative activity against human HCT116 cells after 48 hrs by MTT assay. It counts as functional, cell-based. The settings on record: HCT-116, 48 h. In general terms: Tetrazolium assays rely on reduction of a dye to a coloured formazan, in cell work by metabolically active cells.
Another test deals with PANC-1. In words: Antiproliferative activity against human PANC1 cells after 48 hrs by MTT assay. The settings on record: PANC-1, 48 h. It is filed as functional, cell-based.
A further test concerns HUVEC. Nature of the test: Antiproliferative activity against HUVEC after 48 hrs by MTT assay. It counts as cell-based. The following applies: Homo sapiens.
The nature of test [1]: Selectivity index, ratio of IC50 for HUVEC to IC50 for human MCF7 cells.
Test [2] in a line: Selectivity index, ratio of IC50 for HUVEC to IC50 for human HepG2 cells.
Test [3] is described as follows: Selectivity index, ratio of IC50 for HUVEC to IC50 for human HCT116 cells.
Test [4] can be described thus: Selectivity index, ratio of IC50 for HUVEC to IC50 for human PANC1 cells.

A word on the IC50: it is the concentration that inhibits the measured activity by half. Low readings indicate higher potency, high ones lower potency. `COc1ccc(-c2c(Nc3ccc4c(c3)OCO4)c3ccccc3oc2=O)cc1`: the IC50 in the test on MCF7 and in the test with HepG2 was > 100 µM in each case.
Consider `COc1ccc2c(Nc3ccc4c(c3)OCO4)c(C(=O)C(F)(F)F)c(=O)oc2c1`, for which the IC50 in the test with MCF7 is 37.4 µM; in the test on HepG2, 10.5 µM; in the test with HCT-116, 12.5 µM; in the test on PANC-1, 15.8 µM.
Consider `COc1ccc(-c2c(Nc3ccc(C)c(O)c3)c3ccc(O)cc3oc2=O)cc1`, for which the IC50 was > 100 µM in the test with MCF7 and > 75.3 µM in the test on HepG2.
For `COc1ccc(Nc2c(-c3ccc(OC)cc3)c(=O)oc3cc(O)ccc23)cc1`, the IC50 in the test with MCF7 is > 100 µM; with HepG2 it was 78.8 µM.
As to `COc1ccc(-c2c(Nc3cccc(C(F)(F)F)c3)c3ccc(OC)cc3oc2=O)cc1`, the IC50 in the test with MCF7 stood at 36.2 µM; with HepG2, 57.2 µM; in the test with HCT-116, 41.2 µM; with PANC-1, 39.5 µM.
Take `COc1ccc(-c2c(Nc3ccc(C)cc3)c3ccc(OC)cc3oc2=O)cc1`: the half-inhibitory concentration (IC50) was 66.9 µM in the test on MCF7, 74.4 µM in the test on HepG2, 82.4 µM in the test with HCT-116 and 76.5 µM in the test with PANC-1.
For `COc1ccc(Nc2c(-c3ccc(OC)cc3)c(=O)oc3ccccc23)cc1`, the IC50 with MCF7 turned out to be 34.6 µM; with HepG2 it was 35.2 µM; in the test on HCT-116, 36.6 µM; in the test on PANC-1, 37.5 µM.
The corresponding values for `COc1ccc(Nc2c(-c3ccc(OC)cc3)c(=O)oc3cc(OC)ccc23)cc1` are 39.2 µM, 39.6 µM, 35.1 µM and 41 µM.
In the case of `COc1ccc2oc(=O)c(C(=O)C(F)(F)F)c(Nc3ccc(C)c(O)c3)c2c1`, the IC50 was found to be 20.1 µM in the test with MCF7; 6.71 µM with HepG2; 4.62 µM in the test with HCT-116; 5.62 µM in the test on PANC-1; 29.4 µM with HUVEC. Besides, the “Ratio IC50” value came to 1.46 in test [1], 4.39 in [2], 6.37 in [3] and 5.23 in [4].
Take `COc1ccc(-c2c(Nc3ccc(F)cc3)c3ccccc3oc2=O)cc1`: the IC50 worked out at 38.5 µM in the test with MCF7, 35.5 µM in the test on HepG2, 39.4 µM in the test with HCT-116 and 32 µM in the test with PANC-1.
`COc1ccc(-c2c(Nc3ccc4c(c3)OCO4)c3ccc(O)cc3oc2=O)cc1`: the IC50 in the test on MCF7 was 89.5 µM; in the test on HepG2 it was 79 µM; in the test with HCT-116, 41.2 µM; in the test with PANC-1, 48.2 µM.
Regarding `COc1ccc(Nc2c(C(=O)C(F)(F)F)c(=O)oc3cc(OC)ccc23)cc1`, the IC50 came to 55.7 µM with MCF7, 38.4 µM in the test with HepG2, 61.2 µM in the test on HCT-116 and 47.5 µM in the test on PANC-1.
Consider `COc1ccc(-c2c(Nc3ccc(NC(C)=O)cc3)c3ccc(O)cc3oc2=O)cc1`, for which the IC50 in the test on MCF7 and with HepG2 was > 100 µM in each case.
For the compound `COc1ccc(-c2c(Nc3ccc(C)cc3)c3ccc(O)cc3oc2=O)cc1`, the concentration for half-maximal inhibition (IC50) with MCF7 is 85.5 µM; with HepG2, 88.3 µM.
For `COc1ccc(-c2c(Nc3cccc(C(F)(F)F)c3)c3ccccc3oc2=O)cc1`, the IC50 came out at 21.6 µM in the test with MCF7, 66.4 µM with HepG2, 55.7 µM in the test on HCT-116 and 49.1 µM in the test with PANC-1.
Regarding `COc1ccc(-c2c(Nc3cc(OC)c(OC)c(OC)c3)c3ccccc3oc2=O)cc1`, the IC50 in the test on MCF7 is 82.3 µM; in the test with HepG2, 77.3 µM; in the test on HCT-116, 63.5 µM; in the test on PANC-1, 77.6 µM.
For `COc1ccc(-c2c(Nc3ccc4c(c3)OCO4)c3ccc(OC)cc3oc2=O)cc1`, the IC50 in the test with MCF7 and in the test on HepG2 was > 100 µM in each case.
In the case of `COc1ccc(-c2c(Nc3cccc(C(F)(F)F)c3)c3ccc(O)cc3oc2=O)cc1`, the IC50 in the test on MCF7 came out at 49.1 µM; in the test on HepG2 it was 53.6 µM; with HCT-116 it was 55.9 µM; in the test on PANC-1, 67.2 µM.
As to `COc1ccc(-c2c(Nc3ccc(NC(C)=O)cc3)c3ccc(OC)cc3oc2=O)cc1`, the half-inhibitory concentration (IC50) was 85.8 µM in the test on MCF7 and > 100 µM in the test with HepG2.
In the case of `COc1ccc(-c2c(Nc3ccc(F)cc3)c3ccc(O)cc3oc2=O)cc1`, the IC50 came out at 71.5 µM with MCF7, 65.6 µM in the test on HepG2, 66.1 µM in the test with HCT-116 and 75 µM in the test with PANC-1.
Regarding `COc1ccc2c(Nc3ccc(F)cc3)c(C(=O)C(F)(F)F)c(=O)oc2c1`, the IC50 came out at 9.74 µM in the test with MCF7, 8.26 µM in the test with HepG2, 11.7 µM with HCT-116 and 12.2 µM in the test with PANC-1.
In the case of `COc1ccc(-c2c(Nc3ccc(C)c(O)c3)c3ccc(OC)cc3oc2=O)cc1`, the half-inhibitory concentration (IC50) was found to be 34.4 µM in the test on MCF7, 22.5 µM with HepG2, 26.5 µM in the test on HCT-116 and 31.3 µM in the test on PANC-1.
With `COc1ccc(-c2c(Nc3ccc(C)cc3)c3ccccc3oc2=O)cc1`, the IC50 was determined as 65.3 µM with MCF7, 59.4 µM in the test on HepG2, 64.8 µM in the test on HCT-116 and 66.1 µM in the test with PANC-1.
Take `O=c1[nH]cc(F)c(=O)[nH]1` [FLUOROURACIL]: the IC50 with HCT-116 was 38.3 µM; with PANC-1 it was 47.8 µM.
As for `CCOc1ccc(Nc2c(-c3ccc(OC)cc3)c(=O)oc3cc(O)ccc23)cc1`, the IC50 in the test on MCF7 was determined as 32.5 µM; in the test with HepG2 it was 36.5 µM; with HCT-116, 46.1 µM; in the test on PANC-1 it was 43.6 µM.
Turning to `COc1ccc(-c2c(Nc3ccc(NC(C)=O)cc3)c3ccccc3oc2=O)cc1`, the IC50 with MCF7 and with HepG2 was > 100 µM each time.
Consider `COc1ccc2oc(=O)c(C(=O)C(F)(F)F)c(Nc3cc(OC)c(OC)c(OC)c3)c2c1`, for which the IC50 with MCF7 was 15 µM; in the test with HepG2, 12.3 µM; in the test with HCT-116 it was 19.5 µM; in the test on PANC-1, 23.8 µM.
As for `COc1ccc2oc(=O)c(C(=O)C(F)(F)F)c(Nc3ccc(F)cc3)c2c1`, the IC50 with MCF7 and with HepG2 was > 100 µM in each case.
As to `COc1ccc(Nc2c(C(=O)C(F)(F)F)c(=O)oc3ccc(OC)cc23)cc1`, the IC50 in the test on MCF7 and in the test on HepG2 was > 100 µM each time.
`CCOc1ccc(Nc2c(-c3ccc(OC)cc3)c(=O)oc3cc(OC)ccc23)cc1`: the IC50 in the test with MCF7 is 24.3 µM; with HepG2 it was 31.2 µM; with HCT-116, 33 µM; in the test with PANC-1, 36.1 µM.
In the case of `COc1ccc(-c2c(Nc3ccc(C)c(O)c3)c3ccccc3oc2=O)cc1`, the IC50 was found to be 12.1 µM with MCF7, 10.2 µM in the test on HepG2, 12.3 µM in the test on HCT-116 and 9.75 µM in the test with PANC-1.
Taken in the same sequence, the figures for `COc1ccc2c(Nc3cc(OC)c(OC)c(OC)c3)c(C(=O)C(F)(F)F)c(=O)oc2c1` were 19.2 µM, 26.4 µM, 17 µM and 24.1 µM.
With `COc1ccc(-c2c(Nc3cc(OC)c(OC)c(OC)c3)c3ccc(O)cc3oc2=O)cc1`, the IC50 was 56 µM in the test with MCF7, 49.6 µM in the test on HepG2, 64.2 µM in the test on HCT-116 and 63.9 µM in the test with PANC-1.
For `COc1ccc(-c2c(Nc3cc(OC)c(OC)c(OC)c3)c3ccc(OC)cc3oc2=O)cc1`, the IC50 in the test with MCF7 was determined as 89.5 µM; in the test on HepG2, 84.3 µM.
Consider `COc1ccc(-c2c(Nc3ccc(F)cc3)c3ccc(OC)cc3oc2=O)cc1`, for which the IC50 in the test on MCF7 and in the test with HepG2 was > 100 µM each time.
On to `CCOc1ccc(Nc2c(-c3ccc(OC)cc3)c(=O)oc3ccccc23)cc1`, for which the IC50 in the test on MCF7 was 30.7 µM; in the test on HepG2, 31.3 µM; with HCT-116 it was 29.5 µM; with PANC-1, 32.9 µM.
